From patent US8779142B2, “Azabicyclo compound and salt thereof” (Taiho Pharmaceutical Co., Ltd., priority 2009, dated 2014)
Where two headings read alike, the source gives them in different places. Each block holds one compound with its values, some of them ahead of it.

Legend:
[1] = test system: SK-BR-3 cells; test: Measurement of cell growth inhibition (crystal violet staining method); type: cell-based; settings: Homo sapiens
[2] = target: human HSP90 alpha protein (HSP90 N-terminal protein, amino acids 2-236) (Homo sapiens (Human), UniProt P07900); test: Measurement of HSP90-binding activity (AlphaScreen competitive assay, biotin-labeled geldanamycin); settings: read-out: HSP-binding activity IC50
[3] = breast cancer SK-BR-3 cells, 72 hr culture with test substance
[4] = concentration inhibiting binding of biotin-labeled geldanamycin (40 nM) to purified HSP90 to 50% of control

Structure (SMILES): CC(C)c1nn(-c2ccc(C(N)=O)cc2C2CC2)c2nccc(-n3cnc(-c4cnn(C)c4)c3)c12 [Example 105, 3-Cyclopropyl-4-{3-isopropyl-4-(4-(1-methyl-1H-pyrazol-4-yl)-1H-imidazol-1-yl)-1H-pyrazolo[3,4-b]pyridin-1-yl}benzamide]
IC50 [1, 3]: 0.25 µM
IC50 [2, 4]: 0.14 µM

Structure (SMILES): CCNc1cc(-n2nc(C(C)C)c3c(-n4cnc(-c5cnn(CC)c5)c4)ccnc32)ccc1C(N)=O [Example 146, 4-{4-(4-(1-Ethyl-1H-pyrazol-4-yl)-1H-imidazol-1-yl)-3-isopropyl-1H-pyrazolo[3,4-b]pyridin-1-yl}-2-(ethylamino)benzamide]
IC50 [1, 3]: 0.21 µM
IC50 [2, 4]: 0.77 µM

Structure (SMILES): CC(C)c1nn(-c2ccc(C(N)=O)cc2Cl)c2nccc(-n3cnc(-c4cnn(C)c4)c3)c12 [Example 99, 3-Chloro-4-{3-isopropyl-4-(4-(1-methyl-1H-pyrazol-4-yl)-1H-imidazol-1-yl)-1H-pyrazolo[3,4-b]pyridin-1-yl}benzamide]
IC50 [1, 3]: 0.69 µM
IC50 [2, 4]: 0.52 µM

Structure (SMILES): CC(C)c1nn(-c2ccc(C(N)=O)c(N[C@H]3CC[C@H](O)CC3)c2)c2nccc(-c3cnc4c(c3)CCCC4)c12 [Example 19, 2-(Trans-4-hydroxycyclohexylamino)-4-{3-isopropyl-4-(5,6,7,8-tetrahydroquinolin-3-yl)-1H-pyrazolo[3,4-b]pyridin-1-yl}benzamide]
IC50 [1, 3]: 0.47 µM
IC50 [2, 4]: 1.19 µM

Structure (SMILES): CC(C)c1nn(-c2ccc(C(N)=O)cc2CN(C)C)c2nccc(-n3cnc(-c4cnn(C)c4)c3)c12 [Example 126, 3-{(Dimethylamino)methyl}-4-{3-isopropyl-4-(4-(1-methyl-1H-pyrazol-4-yl)-1H-imidazol-1-yl)-1H-pyrazolo[3,4-b]pyridin-1-yl}benzamide]
IC50 [1, 3]: 1.13 µM
IC50 [2, 4]: 0.23 µM

Structure (SMILES): CC(C)c1nn(-c2ccc(C(N)=O)c(NC3CCC(O)CC3)c2)c2nccc(-n3cnc(-c4ccco4)c3)c12 (stereo not drawn) [Example 88, 4-{4-(4-(Furan-2-yl)-1H-imidazol-1-yl)-3-isopropyl-1H-pyrazolo[3,4-b]pyridin-1-yl}-2-(4-hydroxycyclohexylamino)benzamide]
IC50 [1, 3]: 0.23 µM
IC50 [2, 4]: 0.68 µM

Structure (SMILES): NC(=O)c1ccc(-n2nc(C(F)(F)F)c3c(-n4cnc(-c5cccnc5)c4)ccnc32)c(N)c1 [Example 177, 3-Amino-4-{4-(4-(pyridin-3-yl)-1H-imidazol-1-yl)-3-(trifluoromethyl)-1H-pyrazolo[3,4-b]pyridin-1-yl}benzamide]
IC50 [1, 3]: 0.39 µM
IC50 [2, 4]: 0.27 µM

Structure (SMILES): CC(C)c1cc(C(N)=O)ccc1-n1nc(C(C)C)c2c(-n3cnc(-c4cccnc4)c3)ccnc21 [Example 137, 3-Isopropyl-4-{3-isopropyl-4-(4-(pyridin-3-yl)-1H-imidazol-1-yl)-1H-pyrazolo[3,4-b]pyridin-1-yl}benzamide]
IC50 [1, 3]: 0.43 µM
IC50 [2, 4]: 0.28 µM

Structure (SMILES): CCc1cn(-c2ccc(C(N)=O)c(NCCCCO)c2)c2nccc(-c3cnc4ccccc4c3)c12 [Example 74, 4-{3-Ethyl-4-(quinolin-3-yl)-1H-pyrrolo[2,3-b]pyridin-1-yl}-2-(4-hydroxybutylamino)benzamide]
IC50 [1, 3]: 0.27 µM
IC50 [2, 4]: 0.34 µM

Structure (SMILES): CC(C)c1nn(-c2ccc(C(N)=O)cc2C2CC2)c2nccc(-n3cnc(-c4cccnc4)c3)c12 [Example 138, 3-Cyclopropyl-4-{3-isopropyl-4-(4-(pyridin-3-yl)-1H-imidazol-1-yl)-1H-pyrazolo[3,4-b]pyridin-1-yl}benzamide]
IC50 [1, 3]: 0.53 µM
IC50 [2, 4]: 0.19 µM

Structure (SMILES): Cc1cc(C(N)=O)ccc1-n1nc(C(C)C)c2c(-c3cnc4ccccc4c3)ccnc21 [Example 80, 4-{3-Isopropyl-4-(quinolin-3-yl)-1H-pyrazolo[3,4-b]pyridin-1-yl}-3-methylbenzamide]
IC50 [1, 3]: 0.29 µM
IC50 [2, 4]: 0.47 µM

Structure (SMILES): CC(C)c1nn(-c2ccc(C(N)=O)c(N[C@H]3CC[C@H](O)CC3)c2)c2cncc(-c3cnc4ccccc4c3)c12 [Example 5, 2-(Trans-4-hydroxycyclohexylamino)-4-{3-isopropyl-4-(quinolin-3-yl)-1H-pyrazolo[3,4-c]pyridin-1-yl}benzamide]
IC50 ([1]; SK-BR-3, 72 h): 0.11 µM
IC50 [2]: 0.16 µM

Structure (SMILES): CC(C)c1nn(-c2ccc(C(N)=O)cc2N)c2nccc(-n3cnc(-c4cnn(C)c4)c3)c12 [Example 107, 3-Amino-4-{3-isopropyl-4-(4-(1-methyl-1H-pyrazol-4-yl)-1H-imidazol-1-yl)-1H-pyrazolo[3,4-b]pyridin-1-yl}benzamide]
IC50 [1, 3]: 0.9 µM
IC50 [2, 4]: 0.2 µM

Other lines, results leading:

IC50 [1, 3]: 0.2 µM
IC50 [2, 4]: 0.1 µM
Structure (SMILES): Cn1cc(-c2cn(-c3ccnc4c3c(C(F)(F)F)nn4-c3ccc(C(N)=O)cc3N)cn2)cn1 [Example 158, 3-Amino-4-{4-(4-(1-methyl-1H-pyrazol-4-yl)-1H-imidazol-1-yl)-3-(trifluoromethyl)-1H-pyrazolo[3,4-b]pyridin-1-yl}benzamide]

IC50 [1, 3]: 0.12 µM
IC50 [2, 4]: 0.14 µM
Structure (SMILES): Cc1cc(C(N)=O)ccc1-n1nc(C(F)(F)F)c2c(-n3cnc(-c4cnn(C)c4)c3)ccnc21 [Example 154, 3-Methyl-4-{4-(4-(1-methyl-1H-pyrazol-4-yl)-1H-imidazol-1-yl)-3-(trifluoromethyl)-1H-pyrazolo[3,4-b]pyridin-1-yl}benzamide]

IC50 [1, 3]: 0.08 µM
IC50 [2, 4]: 0.23 µM
Structure (SMILES): CCc1cn(-c2ccc(C(N)=O)c(NC3CCCCC3N)c2)c2nccc(-c3cnc4ccccc4c3)c12 (stereo not drawn) [Example 70, 2-(2-Aminocyclohexylamino)-4-{3-ethyl-4-(quinolin-3-yl)-1H-pyrrolo[2,3-b]pyridin-1-yl}benzamide]

IC50 [1, 3]: 0.02 µM
IC50 [2, 4]: 0.17 µM
Structure (SMILES): CCc1nn(-c2ccc(C(N)=O)c(N[C@H]3CC[C@H](O)CC3)c2)c2nccc(-c3cnc4ccccc4c3)c12 [Example 3, 2-(Trans-4-hydroxycyclohexylamino)-4-{4-(quinolin-3-yl)-3-ethyl-1H-pyrazolo[3,4-b]pyridin-1-yl}benzamide]

IC50 [1, 3]: 0.02 µM
IC50 [2, 4]: 0.16 µM
Structure (SMILES): CC(C)Nc1cc(-n2nc(C(F)(F)F)c3c(-n4cnc(-c5cnn(C)c5)c4)ccnc32)ccc1C(N)=O [Example 160, 2-(Isopropylamino)-4-{4-(4-(1-methyl-1H-pyrazol-4-yl)-1H-imidazol-1-yl)-3-(trifluoromethyl)-1H-pyrazolo[3,4-b]pyridin-1-yl}benzamide]

IC50 [1, 3]: 0.08 µM
IC50 [2, 4]: 0.18 µM
Structure (SMILES): CCNc1cc(-n2nc(C(C)C)c3c(-n4cnc(-c5cnn(C)c5)c4)ccnc32)ccc1C(N)=O [Example 109, 2-(Ethylamino)-4-{3-isopropyl-4-(4-(1-methyl-1H-pyrazol-4-yl)-1H-imidazol-1-yl)-1H-pyrazolo[3,4-b]pyridin-1-yl}benzamide]

IC50 [1, 3]: 0.2 µM
IC50 [2, 4]: 0.47 µM
Structure (SMILES): CC(C)c1nn(-c2ccc(C(N)=O)c(NC3CCC(O)CC3)c2)c2nccc(-n3cnc(-c4cnn(CCOCc5ccccc5)c4)c3)c12 (stereo not drawn) [Example 94, 4-{4-(4-(1-(Benzyloxyethyl)-1H-pyrazol-4-yl)-1H-imidazol-1-yl)-3-isopropyl-1H-pyrazolo[3,4-b]pyridin-1-yl}-2-(4-hydroxycyclohexylamino)benzamide]

IC50 [1, 3]: 0.04 µM
IC50 [2, 4]: 0.19 µM
Structure (SMILES): CC(C)c1nn(-c2ccc(C(N)=O)c(NC3CCNCC3)c2)c2nccc(-c3cnc4ccccc4c3)c12 [Example 76, 4-{3-Isopropyl-4-(quinolin-3-yl)-1H-pyrazolo[3,4-b]pyridin-1-yl}-2-(piperidin-4-ylamino)-benzamide]
